These are literature values, as cited in paper PMC11444200, “In Vitro Evaluation of Antipseudomonal Activity and Safety Profile of Peptidomimetic Furin Inhibitors” (Biomedicines, 2024).

As usually defined, the Ki is the equilibrium dissociation constant of an inhibitor or competing ligand from its target.

Where two headings read alike, the source gives them in different places.

One data set relates to CYP3A4. As to conditions: cited from earlier work.
The next data set relates to mice. The following applies: mice, cited from earlier work.
A further data set has as its target furin. As to conditions: read-out: Ki (furin); cited from earlier work.
On the set-up of data set [1]: method as in PMID 29059503. The following applies: cited from earlier work.
Data set [2] concerns Mas-related G protein–coupled receptor X2 (MRGPRX2). Also noted: method as in PMID 38385828. The following applies: compared to MI-1851 and MI-2415; cited from earlier work.

Consider `N=C(N)c1cccc(C[C@H](NS(=O)(=O)c2cccc(-c3ccc(Cl)cc3Cl)c2)C(=O)N2CCC(CCN)CC2)c1.O=C(O)C(F)(F)F.O=C(O)C(F)(F)F` [MI-432], for which the CYP3A4 inhibition entry in the data set on CYP3A4 (compared with MI-1851 and MI-2415) is “inhibit CYP3A4 already at considerably lower concentrations”.

As for `CC(C)(C)[C@H](NC(=O)[C@H](CCCN=C(N)N)NC(=O)Cc1ccc(CN=C(N)N)cc1)C(=O)N[C@@H](CCCN=C(N)N)C(=O)NCc1ccc(C(=N)N)cc1` [MI-1148, 4-guanidinomethyl-phenylacetyl-Arg-Tle-Arg-4-Amba, reference compound], the mortality result with mice (5 mg/kg i.p.) is reported as “all four mice died”. In the data set with mice (i.p.), the maximum tolerated dose is 2.5 mg/kg. Moreover, the Ki on furin is 5.5 pM. Also, the “stability in human plasma” value in data set [1] is recorded as “high stability”. Besides, the “activation of MRGPRX2” value in data set [2] is on record as “much stronger activation”.

`COc1ccc(-c2cccc(S(=O)(=O)N[C@@H](Cc3cccc(C(=N)N)c3)C(=O)N3CCN(C(=O)NC4CCCCC4)CC3)c2)c(OC)c1` [MI-1900]: the CYP3A4 inhibition result in the data set with CYP3A4 was “inhibit CYP3A4 already at considerably lower concentrations”.
